Molecules are shown by their SMILES. Square brackets hold non-standard residues; d marks the D form. Peptide text beside a SMILES is read from it.

The conditions of data set [1]: 25% human serum, 0 hours and 24 hours (FIG. 1).
The next data set concerns the target TEM-1 β-lactamase (Escherichia coli, UniProt P62593). Description: β-lactamase colorimetry assay (TEM-1 inhibition). The format is biochemical, E. coli. The settings on record: for TEM-1 inhibition compared with T61-25: β-lactamase colorimetry assay. From the text:
The bacteria can express a β-lactamase and the antibacterial peptide can inhibit the ability of the β-lactamase to cleave a β-lactam ring. This can be measured using a beta lactamase inhibition assay like a commercially available beta lactamase inhibitor screening kit. These kits test the ability of a beta lactamase to hydrolyze a chromogenic substrate, which results in the generation of a colored product. The amount of color produced is directly proportional to the amount of beta-lactamase activity. In the presence of beta lactamase inhibitors, such as clavulanic acid or the antibacterial peptides described herein, the rate of substrate hydrolysis will decrease resulting in a decrease in the production of colored analyte. The non-peptide β-lactamase inhibitor can include clavulanate, clavulanic acid, sulbactam, taobactam, avibactam, relebacam, RG6080, or RPX7009.

Another data set addresses PBP2a (Staphylococcus aureus, UniProt P07944). The data set is described as follows: PBP2a colorimetry assay. The format is biochemical. From the text:
Methicillin-resistant Staphylococcus aureus (MRSA) contains the mecA gene in a mobile genetic element found in all MRSA strains, which encodes penicillin-binding protein 2a (PBP2a). PBPs are membrane-bound enzymes that catalyze the transpeptidation reaction that is necessary for cross-linkage of peptidoglycan chains for cell wall formation and targeted by β-lactam. Because of the low affinity of PBP2a for all β-lactam antibiotics, it can substitute for other PBPs under high concentrations of f-lactam antibiotics. As a result. MRSA strains are highly resistant to β-lactam antibiotics.

Another data set concerns SAP231. Description: Enhancement of cefazolin killing of MRSA. The settings on record: at the test concentrations, 0 μg/ml peptide. The format is cell-based, Staphylococcus aureus. On the procedure:
FIGS. 4A and 4B are graphs showing RI-D-BP100-T61-25 combined with cefazolin and tested against both SAP231 (FIG. 4A) and NRS384 strain (FIG. 4B).
Additionally, the peptide's potency at enhancing cefazolin killing of MRSA was also tested. Cefazolin is a cephalosporin, which are improved β-lactams developed to overcome some of the early penicillin resistance. Cefazolin is a first line therapy for the treatment of Methicillin-susceptible Staphylococcus aureus (MSSA) infections. […] RI-D-BP100-T61-25 was also combined with cefazolin and tested against both SAP231 (FIG. 4A) and NRS384 strain (FIG. 4B).

TEM-1 β-lactamase, sequence (P62593 24-286 limits assumed): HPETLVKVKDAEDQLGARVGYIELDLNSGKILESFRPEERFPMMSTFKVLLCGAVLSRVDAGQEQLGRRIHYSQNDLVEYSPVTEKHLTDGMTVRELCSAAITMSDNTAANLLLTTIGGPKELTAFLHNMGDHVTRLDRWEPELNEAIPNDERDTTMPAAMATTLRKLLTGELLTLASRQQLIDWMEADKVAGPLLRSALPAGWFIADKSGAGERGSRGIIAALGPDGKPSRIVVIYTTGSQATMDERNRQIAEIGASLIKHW
PBP2a, sequence (P07944 whole entry): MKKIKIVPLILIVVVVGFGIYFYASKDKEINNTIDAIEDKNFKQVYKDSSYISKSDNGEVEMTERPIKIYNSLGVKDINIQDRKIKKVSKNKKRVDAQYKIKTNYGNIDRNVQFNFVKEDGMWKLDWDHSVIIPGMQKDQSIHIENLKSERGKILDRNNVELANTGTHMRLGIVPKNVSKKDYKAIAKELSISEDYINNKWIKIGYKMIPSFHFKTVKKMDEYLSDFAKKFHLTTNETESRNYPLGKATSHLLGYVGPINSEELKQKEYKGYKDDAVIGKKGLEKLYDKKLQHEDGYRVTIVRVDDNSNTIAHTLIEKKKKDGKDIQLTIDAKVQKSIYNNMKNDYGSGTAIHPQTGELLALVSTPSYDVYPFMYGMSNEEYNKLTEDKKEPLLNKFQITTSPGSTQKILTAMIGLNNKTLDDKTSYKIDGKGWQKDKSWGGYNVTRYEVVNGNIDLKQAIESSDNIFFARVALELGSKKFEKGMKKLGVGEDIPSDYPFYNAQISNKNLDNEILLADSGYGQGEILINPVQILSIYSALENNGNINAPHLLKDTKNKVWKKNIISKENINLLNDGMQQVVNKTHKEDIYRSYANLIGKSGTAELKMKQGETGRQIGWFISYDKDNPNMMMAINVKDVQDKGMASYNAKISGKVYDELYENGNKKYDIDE

With `CC[C@@H](C)[C@@H](NC(=O)[C@@H](CC(C)C)NC(=O)[C@@H](CCCCN)NC(=O)[C@@H](Cc1ccc(O)cc1)NC(=O)[C@@H](CC(C)C)NC(=O)[C@@H](CCCCN)NC(=O)[C@H](NC(=O)[C@@H](Cc1ccc(O)cc1)NC(=O)[C@@H](CC(C)C)NC(=O)[C@@H](C)NC(=O)[C@@H](CCC(N)=O)NC(=O)[C@@H](C)NC(=O)[C@@H](C)NC(=O)[C@@H](C)NC(=O)[C@H](NC(=O)CN)[C@H](C)O)[C@H](C)O)C(=O)N[C@H](CCCCN)C(=O)N[C@H](CCCCN)C(=O)N[C@H](Cc1ccccc1)C(=O)N[C@H](CC(C)C)C(=O)N[C@H](CCCCN)C(=O)N[C@H](CCCCN)C(=O)O` [RI-D-BP100-T61-25, dGdTdAdAdAdQdAdLdYdTdKdLdYdKdLdIdKdKdFdLdKdK] (H-G[dT][dA][dA][dA][dQ][dA][dL][dY][dT][dK][dL][dY][dK][dL][dI][dK][dK][dF][dL][dK][dK]-OH; N-terminus and C-terminus assumed), the serum stability entry in data set [1] was “better than the L-peptide BP100-T61-25”.
`CC(C)C[C@H](NC(=O)[C@H](Cc1ccc(O)cc1)NC(=O)[C@H](NC(=O)[C@@H](N)CCCCN)[C@H](C)O)C(=O)N[C@@H](C)C(=O)N[C@@H](CCC(N)=O)C(=O)N[C@@H](C)C(=O)N[C@@H](C)C(=O)N[C@@H](C)C(=O)N[C@H](C(=O)NCC(=O)O)[C@@H](C)O` [D-T2]: the “TEM-1 inhibition compared with T61-25” value on TEM-1 β-lactamase was “maintained comparable levels of TEM-1 inhibition as T61-25”.
Usually Ki stands for a dissociation constant, usually derived from enzyme kinetics or from competition with a known ligand. The low end stands for tighter binding, the high end for weaker binding. Turning to `CC(C)C[C@@H](NC(=O)[C@@H](C)NC(=O)[C@@H](CCC(N)=O)NC(=O)[C@@H](C)NC(=O)[C@@H](C)NC(=O)[C@@H](C)NC(=O)[C@H](NC(=O)CN)[C@H](C)O)C(=O)N[C@H](Cc1ccc(O)cc1)C(=O)N[C@@H](C(=O)N[C@H](CCCCN)C(=O)O)[C@H](C)O` [RI-D-T61-25, dGdTdAdAdAdQdAdLdYdTdK], at TEM-1 β-lactamase, the Ki was found to be 0.88 ± 0.04 µM and the “TEM-1 inhibition compared with T61-25” value is given as “maintained comparable levels of TEM-1 inhibition as T61-25”.
In the case of `CC(C)C[C@@H](NC(=O)[C@@H](Cc1ccc(O)cc1)NC(=O)[C@H](NC(=O)[C@H](N)CCCCN)[C@H](C)O)C(=O)N[C@H](C)C(=O)N[C@H](CCC(N)=O)C(=O)N[C@H](C)C(=O)N[C@H](C)C(=O)N[C@H](C)C(=O)N[C@@H](C(=O)NCC(=O)O)[C@H](C)O` [D-T61-25], the “TEM-1 inhibition compared with T61-25” value at TEM-1 β-lactamase is “maintained comparable levels of TEM-1 inhibition as T61-25”.
Regarding `CC(C)C[C@H](NC(=O)[C@H](Cc1ccc(O)cc1)NC(=O)[C@@H](NC(=O)[C@@H](N)CCCCN)[C@@H](C)O)C(=O)N[C@@H](C)C(=O)N[C@@H](CCC(N)=O)C(=O)N[C@@H](C)C(=O)N[C@@H](C)C(=O)N[C@@H](C)C(=O)N[C@H](C(=O)NCC(=O)O)[C@@H](C)O` [Inhibitor T61-25], on PBP2a, the “inhibition of PBP2a activity” value is reported as “capable of inhibiting PBP2a activity at μM range”.
As to `Cc1nnc(SCC2=C(C(=O)O)N3C(=O)[C@@H](NC(=O)Cn4cnnn4)[C@H]3SC2)s1` [cefazolin, Cefazolin], in the data set with SAP231, the “inhibition of SAP231 growth by cefazolin alone” value is recorded as “partially inhibited”.

For the origin of these results see patent US20260200978A1, “PEPTIDE INHIBITORS OF BETA-LACTAMASE” (priority 2022, published 2026).
